The nature of series [1]: Stability of andrographolide. It is filed as physicochemical. The source says: Thus andrographolide can be contained in the composition of the present invention without being processed or made into various forms according to the purpose by use of methods that are publicly known among people skilled in the art; for instance, it can be made into food, drink, seasoning, alcoholic beverages, functional food, pharmaceuticals, or the like. Especially the composition of the present invention can be made into pharmaceuticals for oral administration or food (e.g., functional food, dietary supplement, food with nutrient function, food for specified use, food for specified health use, nutritional supplement, health food, food for diet therapy, general health food, supplements).

Another series concerns Balb/c mice. Nature of the series: Measurement of liver fatigue (serum GOT, GPT, liver TBARS) after water immersion and sleep disturbance. It is filed as in vivo. The conditions noted are these: 8 mg per kilogram of body weight orally once daily during two days of water immersion. The protocol:
The second test is measurement of liver fatigue. This is described in detail below in Example 2. […] In a liver of this model, GOT and GPT levels increased, compared with those of a normally-reared group. GOT (glutamic oxalacetic transaminase) and GPT (glutamic pyruvic transaminase), which are enzymes present in hepatic cells, are known to escape into blood when hepatic cells are damaged. Therefore, a level of damage on the liver is determined by measuring GOT and GPT in blood. […] It is inferred that the long-term general fatigue condition caused alteration in liver function, disruption of oxygen reduction system balance, and the like to result in accumulation of lipid peroxide. This is considered to support the fact that this model is an organ fatigue model.
That is to say, since this animal model is also an organ fatigue model, anti-fatigue action against organ fatigue would be confirmed if it is observed that administration of the test substance, for instance, returns a changed organ fatigue marker, such as GOT, GPT, and TBARS mentioned above, to a normal level and reduces change in the organ markers. Such anti-fatigue action is considered to regulate overall activity of internal organs to condition metabolism, thereby being involved in reduction of physical and mental fatigue stress, maintenance of energy, improvement in endurance, and the like.
Effect of andrographolide on fatigue from water immersion and sleep disturbance was examined using a partially modified method of Tanaka et al. (Neuroscience Let. 352, 159-162, 2003). […] Blood serum was separated from the blood, and GOT (glutamic oxalacetic transaminase) and GPT (glutamic pyruvic transaminase) in the blood serum were measured with a small-sized biochemistry automatic analyzer (Model 7070, Hitachi High-Technologies Corporation). Further, levels of lipid peroxide from liver were measured as a level of TBARS (thiobarbituric acid reactive substances). […] Then, the TBARS levels were measured in accordance with the method of Ohkawa et al. Anal. Biochem. 95. […]

With `C=C1CC[C@@H]2[C@](C)(CO)[C@H](O)CC[C@@]2(C)[C@@H]1C/C=C1/C(=O)OC[C@H]1O` [andrographolide], in series [1], the “stability to pH, moisture, oxidation, light, heat” value is on record as “high stability”. For the same molecule, the “GOT level in the blood serum” value with Balb/c mice (FIG. 2(A)) was “prevented from increasing”. In addition, in the series with Balb/c mice (FIG. 2(B)), the “GPT level in the blood serum” value is given as “prevented from increasing”. For the same molecule, the “liver TBARS level” value with Balb/c mice (FIG. 2(C)) is reported as “prevented from increasing”.

The values are drawn from patent publication US8507547B2, “Anti-fatigue agents and oral compositions containing andrographolide as active ingredient” (Suntory Holdings Limited, priority 2007, dated 2013).
